Converted amounts (≈) assume the structure as drawn. The source made the active and inactive calls. The calls are words filed in the database; no cut-off is given here.
Columns and labels:
[1] = Permeability of the compound across apical to basolateral membrane in human Caco-2 cells at 10 uM measured for 90 mins by LC-MS/MS analysis; type: ADME, cell-based
[2] = biological target: 3',5'-cyclic-AMP phosphodiesterase 4B (Homo sapiens) (UniProt Q07343); assay: Inhibition of N-terminal GST-tagged full length human PDE4B1 (1 to 736 residues) expressed in baculovirus-infected Sf9 cells using FAM-cAMP as substrate at 2 uM measured after 60 mins by fluorescence based analysis
Chain of 3',5'-cyclic-AMP phosphodiesterase 4B (Homo sapiens) (Q07343 whole entry, the tested form may be a part): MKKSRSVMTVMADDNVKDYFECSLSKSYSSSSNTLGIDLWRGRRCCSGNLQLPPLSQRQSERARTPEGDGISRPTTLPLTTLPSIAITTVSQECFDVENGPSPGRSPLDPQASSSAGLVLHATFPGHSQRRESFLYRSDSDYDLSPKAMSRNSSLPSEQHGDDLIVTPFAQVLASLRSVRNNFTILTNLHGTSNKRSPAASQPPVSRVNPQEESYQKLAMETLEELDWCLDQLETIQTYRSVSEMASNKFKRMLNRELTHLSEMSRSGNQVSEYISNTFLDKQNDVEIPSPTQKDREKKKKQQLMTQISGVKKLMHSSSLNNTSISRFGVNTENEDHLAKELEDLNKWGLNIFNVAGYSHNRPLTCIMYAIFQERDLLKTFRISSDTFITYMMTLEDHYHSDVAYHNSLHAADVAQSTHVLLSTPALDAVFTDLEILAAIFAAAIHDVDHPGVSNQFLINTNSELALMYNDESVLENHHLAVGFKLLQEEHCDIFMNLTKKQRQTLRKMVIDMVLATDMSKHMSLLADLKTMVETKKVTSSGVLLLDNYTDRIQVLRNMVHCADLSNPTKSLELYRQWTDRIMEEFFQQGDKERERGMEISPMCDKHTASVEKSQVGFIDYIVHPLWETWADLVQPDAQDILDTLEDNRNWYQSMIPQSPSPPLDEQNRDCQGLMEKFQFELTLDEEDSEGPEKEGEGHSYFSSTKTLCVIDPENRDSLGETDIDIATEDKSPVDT

[3] = biological target: T1, Poly [ADP-ribose] polymerase 1 (Homo sapiens, UniProt P09874); assay: Inhibition of N-terminal GST-tagged full length human PARP1 (2 to 1014 residues) expressed in baculovirus-infected Sf9 cells using histone as substrate incubated for 60 mins in presence of activated DNA, NAD+, NAD+-biotin by luminescence based analysis
T1 sequence (P09874 whole entry, the tested form may be a part): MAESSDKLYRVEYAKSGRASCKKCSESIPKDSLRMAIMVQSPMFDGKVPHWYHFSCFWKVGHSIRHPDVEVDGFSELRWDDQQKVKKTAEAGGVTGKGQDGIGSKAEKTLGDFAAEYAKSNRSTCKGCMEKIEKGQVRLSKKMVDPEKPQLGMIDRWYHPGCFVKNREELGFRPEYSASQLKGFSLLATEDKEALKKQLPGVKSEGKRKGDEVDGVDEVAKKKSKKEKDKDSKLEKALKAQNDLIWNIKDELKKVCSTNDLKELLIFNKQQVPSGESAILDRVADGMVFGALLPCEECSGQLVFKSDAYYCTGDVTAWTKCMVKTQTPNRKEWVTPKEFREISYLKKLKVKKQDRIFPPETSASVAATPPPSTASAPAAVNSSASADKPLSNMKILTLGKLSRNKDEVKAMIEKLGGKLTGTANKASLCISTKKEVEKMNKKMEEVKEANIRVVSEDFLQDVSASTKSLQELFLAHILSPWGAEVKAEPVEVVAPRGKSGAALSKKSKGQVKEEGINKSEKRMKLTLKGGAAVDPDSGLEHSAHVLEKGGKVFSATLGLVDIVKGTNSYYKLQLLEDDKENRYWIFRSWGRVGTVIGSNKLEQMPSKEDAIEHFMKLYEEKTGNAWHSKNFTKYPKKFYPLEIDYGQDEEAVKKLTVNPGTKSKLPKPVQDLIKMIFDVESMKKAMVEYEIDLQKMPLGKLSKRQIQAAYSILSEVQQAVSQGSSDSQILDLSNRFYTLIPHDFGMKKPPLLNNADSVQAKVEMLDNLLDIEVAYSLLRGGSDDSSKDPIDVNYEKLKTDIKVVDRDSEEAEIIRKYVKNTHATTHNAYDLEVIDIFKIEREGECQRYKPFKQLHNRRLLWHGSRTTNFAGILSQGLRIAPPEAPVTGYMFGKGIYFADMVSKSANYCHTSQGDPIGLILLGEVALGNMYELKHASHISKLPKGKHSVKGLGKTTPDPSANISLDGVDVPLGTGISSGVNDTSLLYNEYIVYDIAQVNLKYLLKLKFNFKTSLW

[4] = biological target: T2, Poly [ADP-ribose] polymerase 2 (Homo sapiens, UniProt Q9UGN5); assay: Inhibition of N-terminal GST-tagged human PARP2 (2 to 583 residues) expressed in baculovirus-infected Sf9 cells using histone as substrate incubated for 60 mins in presence of activated DNA, NAD+, NAD+-biotin by luminescence based analysis
T2 sequence (Q9UGN5 whole entry, the tested form may be a part): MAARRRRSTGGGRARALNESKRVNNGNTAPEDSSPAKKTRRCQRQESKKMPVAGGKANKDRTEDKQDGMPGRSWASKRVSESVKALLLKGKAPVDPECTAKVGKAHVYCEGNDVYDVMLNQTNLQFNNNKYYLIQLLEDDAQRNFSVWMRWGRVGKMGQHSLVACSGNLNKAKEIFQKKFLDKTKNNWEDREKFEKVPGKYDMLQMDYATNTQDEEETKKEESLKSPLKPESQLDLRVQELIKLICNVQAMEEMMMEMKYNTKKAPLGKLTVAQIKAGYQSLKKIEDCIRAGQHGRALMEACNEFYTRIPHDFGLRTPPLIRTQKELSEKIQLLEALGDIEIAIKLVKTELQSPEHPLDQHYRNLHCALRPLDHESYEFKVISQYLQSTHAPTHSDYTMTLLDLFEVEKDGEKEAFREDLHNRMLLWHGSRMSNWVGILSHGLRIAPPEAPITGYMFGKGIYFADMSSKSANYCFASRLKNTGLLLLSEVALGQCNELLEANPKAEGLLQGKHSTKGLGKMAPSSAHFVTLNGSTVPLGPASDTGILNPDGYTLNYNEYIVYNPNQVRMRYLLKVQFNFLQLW

Staphylococcus aureus [5] = assay: Antibacterial activity against Staphylococcus aureus ATCC 43300 assessed as inhibition of bacterial growth incubated for 18 hrs; type: functional
[6] = biological target: 3',5'-cyclic-AMP phosphodiesterase 4B (Homo sapiens) (UniProt Q07343); assay: Inhibition of N-terminal GST-tagged full length human PDE4B1 (1 to 736 residues) expressed in baculovirus-infected Sf9 cells using FAM-cAMP as substrate at 0.1 uM measured after 60 mins by fluorescence based analysis
[7] = Hepatic blood flow in human; type: ADME
[8] = Half life in human hepatocytes at 1 uM by LC-MS/MS analysis; type: ADME, cell-based, Hepatocyte
[9] = Lipophilicity, log D of the compound in Octanol/PBS buffer at pH 7.4 measured after 1 hr by LC-MS/MS analysis; type: physicochemical
[10] = Lipophilicity, log P of the compound in octanol/water by RP-HPLC analysis; type: physicochemical
[11] = Clearance in human hepatocytes at 1 uM measured per million cells by LC-MS/MS analysis; type: ADME, cell-based, Hepatocyte; settings: read-out: CLH
Candida albicans [12] = assay: Antifungal activity against Candida albicans UAMH 3489 assessed as inhibition of fungal growth at 100 uM incubated for 24 hrs; type: functional, organism-based
[13] = Kinetic solubility of the compound in PBS buffer at pH 7.4 measured after 2 hrs by LC-MS/MS analysis; type: physicochemical; settings: read-out: Kinetic_solubility
[14] = Protein binding in human plasma at 1 uM measured after 6 hrs by LC-MS/MS analysis; type: ADME, cell-free; settings: read-out: PPB (converted)
[15] = Permeability of the compound across basolateral to apical membrane in human Caco-2 cells at 10 uM measured for 90 mins by LC-MS/MS analysis; type: ADME, cell-based
[16] = Efflux ratio of permeability across basolateral to apical membrane over apical to basolateral membrane in human Caco-2 cells at 10 uM measured for 90 mins by LC-MS/MS analysis; type: ADME, cell-based
[17] = Dissociation constant, pKa of the compound in 1:1 CH3CN/aqueous phosphate buffer; type: physicochemical
[18] = Stability of the compound in d6-DMSO with drop of D2O and measured for >1 month at room temperature by NMR spectroscopy; type: physicochemical; settings: time > 1 months, read-out: Stability
[19] = Dissociation constant, pKa of the compound in aqueous phosphate buffer with 3 to 4% DMSO; type: physicochemical
Candida albicans [20] = assay: Antifungal activity against Candida albicans UAMH 3489 assessed as inhibition of fungal growth incubated for 24 hrs; type: functional
[21] = biological target: T1, Poly [ADP-ribose] polymerase 1; assay: Inhibition of N-terminal GST-tagged full length human PARP1 (2 to 1014 residues) expressed in baculovirus-infected Sf9 cells using histone as substrate at 1000 nM incubated for 60 mins in presence of activated DNA, NAD+, NAD+-biotin by luminescence based analysis
[22] = biological target: T2, Poly [ADP-ribose] polymerase 2; assay: Inhibition of N-terminal GST-tagged human PARP2 (2 to 583 residues) expressed in baculovirus-infected Sf9 cells using histone as substrate at 1000 nM incubated for 60 mins in presence of activated DNA, NAD+, NAD+-biotin by luminescence based analysis
Staphylococcus aureus [23] = assay: Antibacterial activity against Staphylococcus aureus ATCC 43300 assessed as inhibition of bacterial growth at 100 uM incubated for 18 hrs; type: functional, organism-based

CC(C)NCC(O)COc1cccc2ccccc12 (stereo unspecified) [PROPRANOLOL]
Papp A→B at 1.5 h, 10 µM [1]: 3.4 ×10⁻⁶ cm/s

N#Cc1ccc(Oc2ccc3c(c2)C(c2ccccc2)=NOB3O)cc1
inhibition [2]: 15%

O=C(c1cc(CC2=NNB(O)c3ccccc32)ccc1F)N1CCN(C(=O)C2CC2)CC1
IC50 [3]: ~540 nM
IC50 [4]: 120 nM

COc1ccc(C2=NOB(O)c3ccccc32)cc1Br
MIC (Staphylococcus aureus [5]): 16 µM (≈ 5.31 µg/mL)

N#Cc1ccc(Oc2ccc3c(c2)COB3O)cc1
inhibition [6]: 11%

OB1NN=Cc2ccccc21
percent of hepatic blood flow [7]: < 36.1%
half-life at 1 µM [8]: > 360 min
logD at 1 h [9]: 2.03
logP [10]: 1.94
hepatocyte CLint at 1 µM [11]: < 3.9 µL/min/1e6 cells
Activity (Candida albicans [12]): inactive
solubility kinetic at 2 h [13]: ≥ 439 µM
fraction unbound at 6 h, 1 µM [14]: 0.082
Papp A→B at 1.5 h, 10 µM [1]: 30.1 ×10⁻⁶ cm/s
Papp B→A at 1.5 h, 10 µM [15]: 30.6 ×10⁻⁶ cm/s
efflux ratio at 1.5 h, 10 µM [16]: 1
pKa [17]: > 14
remaining at 730 h [18]: > 99%
pKa [19]: > 14

O=C(Nc1ccc2c(c1)B(O)NN=C2c1ccccc1)c1ccc(F)cc1C(F)(F)F
MIC (Staphylococcus aureus [5]): 64 µM (≈ 27.3 µg/mL)

OB1ON=Cc2cc(-c3ccc(C(F)(F)F)cc3)ccc21
MIC (Candida albicans [20]): 0.125 µM (≈ 0.0364 µg/mL)

OB1OCc2cc(F)ccc21 [TAVABOROLE]
MIC (Staphylococcus aureus [5]): 128 µM (≈ 19.4 µg/mL)
MIC (Candida albicans [20]): 1 µM (≈ 0.152 µg/mL)
solubility kinetic at 2 h [13]: > 658 µM
fraction unbound at 6 h, 1 µM [14]: 0.34
pKa [19]: 7.4

OB1ON=Cc2cc(-c3ccoc3)ccc21
MIC (Candida albicans [20]): 2 µM (≈ 0.426 µg/mL)

O=C(c1cc(CC2=NOB(O)c3ccccc32)ccc1F)N1CCN(C(=O)C2CC2)CC1
IC50 [3]: > 1000 nM
IC50 [4]: > 1000 nM
inhibition [21]: inactive
inhibition [22]: 18%

O=C(Nc1ccc2c(c1)B(O)NN=C2)c1ccc(F)cc1C(F)(F)F
Activity (Staphylococcus aureus [23]): inactive

OB1NN=C(c2ccccc2)c2cc(F)ccc21
Activity (Staphylococcus aureus [23]): inactive
MIC (Candida albicans [20]): > 128 µM

OB1ON=Cc2ccccc21
percent of hepatic blood flow [7]: 81.2%
half-life at 1 µM [8]: 47.1 min
logD at 1 h [9]: ~0.65
logP [10]: 1.23
hepatocyte CLint at 1 µM [11]: 29.7 µL/min/1e6 cells
MIC (Candida albicans [20]): 16 µM (≈ 2.35 µg/mL)
solubility kinetic at 2 h [13]: ≥ 386 µM
fraction unbound at 6 h, 1 µM [14]: 0.71
Papp A→B at 1.5 h, 10 µM [1]: 33 ×10⁻⁶ cm/s
Papp B→A at 1.5 h, 10 µM [15]: 4.4 ×10⁻⁶ cm/s
efflux ratio at 1.5 h, 10 µM [16]: 0.13
pKa [17]: 7.1
remaining at 730 h [18]: > 99%
pKa [19]: 5.5

CN(C)CCCN1c2ccccc2CCc2ccccc21 [IMIPRAMINE]
solubility kinetic at 2 h [13]: 457 µM (≈ 128 µg/mL)

OB1ON=Cc2cc(-c3ccsc3)ccc21
MIC (Candida albicans [20]): 2 µM (≈ 0.458 µg/mL)

C[C@H]1O[C@@H](O[C@H]2[C@@H](O)C[C@H](O[C@H]3[C@@H](O)C[C@H](O[C@H]4CC[C@@]5(C)[C@H](CC[C@@H]6[C@@H]5C[C@@H](O)[C@]5(C)[C@@H](C7=CC(=O)OC7)CC[C@]65O)C4)O[C@@H]3C)O[C@@H]2C)C[C@H](O)[C@@H]1O [DIGOXIN]
Papp A→B at 1.5 h, 10 µM [1]: 1 ×10⁻⁶ cm/s
Papp B→A at 1.5 h, 10 µM [15]: 13.1 ×10⁻⁶ cm/s
efflux ratio at 1.5 h, 10 µM [16]: 13.4

N#Cc1ccc(Oc2ccc3c(c2)C=NOB3O)cc1
Activity (Candida albicans [12]): inactive
inhibition [2]: 23%

OB1ON=C(c2ccccc2)c2ccccc21
percent of hepatic blood flow [7]: < 36.1%
half-life at 1 µM [8]: > 360 min
logD at 1 h [9]: 0.71
logP [10]: 2.6
hepatocyte CLint at 1 µM [11]: < 3.9 µL/min/1e6 cells
MIC (Staphylococcus aureus [5]): 128 µM (≈ 28.5 µg/mL)
MIC (Candida albicans [20]): 32 µM (≈ 7.14 µg/mL)
solubility kinetic at 2 h [13]: ≥ 403 µM
fraction unbound at 6 h, 1 µM [14]: 0.102
Papp A→B at 1.5 h, 10 µM [1]: 34.5 ×10⁻⁶ cm/s
Papp B→A at 1.5 h, 10 µM [15]: 4 ×10⁻⁶ cm/s
efflux ratio at 1.5 h, 10 µM [16]: 0.12
pKa [17]: 7
remaining at 730 h [18]: > 99%
pKa [19]: ~5.5

C[C@]12CC[C@H]3[C@@H](CCC4=CC(=O)CC[C@@]43C)[C@@H]1CC[C@@H]2O [TESTOSTERONE]
percent of hepatic blood flow [7]: 89.1%
half-life at 1 µM [8]: 25 min
hepatocyte CLint at 1 µM [11]: 60.2 µL/min/1e6 cells

OC(Cn1cncn1)(Cn1cncn1)c1ccc(F)cc1F [FLUCONAZOLE]
MIC (Candida albicans [20]): 4 µM (≈ 1.23 µg/mL)

COc1ccc2c(c1)C(c1ccccc1)=NOB2O
MIC (Staphylococcus aureus [5]): 8 µM (≈ 2.02 µg/mL)

N#Cc1ccc(Oc2ccc3c(c2)C=NNB3O)cc1
inhibition [2]: 5%

OB1ON=Cc2cc(F)ccc21
Activity (Staphylococcus aureus [23]): inactive
MIC (Candida albicans [20]): 8 µM (≈ 1.32 µg/mL)

OB1ON=C(c2ccccc2)c2cc(F)ccc21
MIC (Staphylococcus aureus [5]): 64 µM (≈ 15.4 µg/mL)
MIC (Candida albicans [20]): 16 µM (≈ 3.86 µg/mL)

CCCSc1ccc2nc(NC(=O)OC)[nH]c2c1 [ALBENDAZOLE]
logD at 1 h [9]: 3.57

OB1NN=C(c2ccccc2)c2ccccc21
percent of hepatic blood flow [7]: 65.2%
half-life at 1 µM [8]: 109 min
logD at 1 h [9]: 3.44
logP [10]: 3.72
hepatocyte CLint at 1 µM [11]: 12.8 µL/min/1e6 cells
solubility kinetic at 2 h [13]: 189 µM (≈ 42.1 µg/mL)
fraction unbound at 6 h, 1 µM [14]: 0.0141
Papp A→B at 1.5 h, 10 µM [1]: 26.9 ×10⁻⁶ cm/s
Papp B→A at 1.5 h, 10 µM [15]: 22.1 ×10⁻⁶ cm/s
efflux ratio at 1.5 h, 10 µM [16]: 0.82
pKa [17]: > 13
remaining at 730 h [18]: > 99%
pKa [19]: > 14

OB1NN=Cc2cc(F)ccc21
MIC (Candida albicans [20]): > 128 µM

COc1ccc(C2=NOB(O)c3ccccc32)cc1
MIC (Staphylococcus aureus [5]): 64 µM (≈ 16.2 µg/mL)
MIC (Candida albicans [20]): 32 µM (≈ 8.1 µg/mL)

CCCC(=O)Nc1ccc(OCC(O)CNC(C)C)c(C(C)=O)c1 (stereo unspecified) [ACEBUTOLOL]
fraction unbound at 6 h, 1 µM [14]: 0.707

COC(=O)C1=C(C)NC(C)=C(C(=O)OCCN(C)Cc2ccccc2)C1c1cccc([N+](=O)[O-])c1 (stereo unspecified) [NICARDIPINE]
solubility kinetic at 2 h [13]: 4.7 µM (≈ 2.25 µg/mL)

OB1OCc2ccccc21 [BENZOXABOROLE]
pKa [17]: 9.2
pKa [19]: 7.4

OB1NN=Cc2cc(-c3ccc(C(F)(F)F)cc3)ccc21
Activity (Candida albicans [12]): inactive

OB1ON=Cc2cc(-c3ccccc3)ccc21
MIC (Candida albicans [20]): 8 µM (≈ 1.78 µg/mL)

CN[C@H](CC(C)C)C(=O)N[C@H]1C(=O)N[C@@H](CC(N)=O)C(=O)N[C@H]2C(=O)N[C@H]3C(=O)N[C@H](C(=O)N[C@H](C(=O)O)c4cc(O)cc(O)c4-c4cc3ccc4O)[C@H](O)c3ccc(c(Cl)c3)Oc3cc2cc(c3O[C@@H]2O[C@H](CO)[C@@H](O)[C@H](O)[C@H]2O[C@H]2C[C@](C)(N)[C@H](O)[C@H](C)O2)Oc2ccc(cc2Cl)[C@H]1O [VANCOMYCIN]
MIC (Staphylococcus aureus [5]): 4 µM (≈ 5.8 µg/mL)

OB1ON=Cc2cc(-c3ccc(F)cc3)ccc21
MIC (Candida albicans [20]): 4 µM (≈ 0.964 µg/mL)

From ChEMBL document CHEMBL5365528, “Expanding the Role of Boron in New Drug Chemotypes: Properties, Chemistry, Pharmaceutical Potential of Hemiboronic Naphthoids” (J Med Chem, 2023)
